Converted amounts (≈) assume the structure as drawn. “Also recorded” adds a separate entry of the source. Structures can show the parent of a compound that is named as a salt. Where two headings read alike, the source gives them in different places.
Columns and labels:
[1] = system: biofilm bacteria (strains 4, 9, 14, 20, 27, 28); assay: Effect of pharmaceuticals on adhesion of bacteria to plastic / biofilm formation on NTC and TC plates; type: cell-based, marine bacteria isolated from Singapore fouling communities; conditions: for Effect on formation of bacterial biofilms on NTC and TC plates: 25 ug ml−1, NTC = untreated polystyrene, TC = tissue-culture treated, strains 4, 9, 14, 20, 27, 28; for Prevention of formation of biofilm: crude rank, best (1) to worst (8)
Method: Commercial forms of pharmaceuticals were used as previously described. […] These samples were sonicated for at least 1 min and these fine suspensions were used as initial stock solutions.
For studies of bacterial adhesion, the pharmaceuticals were first sterilized by soaking in absolute alcohol (Merck) for half an hour. Ethanol was removed by air-drying with air passed through 0.25 μm pore size syringe filter (Sartorius, Germany). Stock solutions were concentrations of 100 μg ml−1 in SDI.
The effect of pharmaceuticals on bacterial adhesion was analyzed using a modified microplate method adapted from Shea and Williamson (1990). This method employs a combination of staining attached bacteria with crystal violet, releasing the stain with sodium desoxycholate, and measuring the resulting absorbance of the crystal violet.
Detailed results for six selected strains are presented here: strains 4, 9, 14, 20, 27, 28. The bacterial strains were grown in Marine Broth (Pronadisa, Spain) overnight, in the dark, at 28° C. on a rotary shaker (150 rpm) in 5 ml centrifuge tubes (Falcon). Cells were harvested by centrifugation (1500×g, 10 min) and resuspended in sterile seawater (SSW). SSW was prepared by filtering seawater through a 0.2 μm pore size filter (Sartorius) followed by autoclaving. The cells were centrifuged and resuspended once more in SSW. The concentration of resuspended cells was adjusted to A600=1.0 using a spectrophotometer (Beckman DU530, USA).
Flat bottom 96 well polystyrene (hydrophobic, Falcon 351172) (=NTC) and tissue-culture treated polystyrene (hydrophilic, Falcon 353072) (=TC) microplates were used in the analyses. Each test was performed in triplicate. Two sets of experiments were conducted. […] For the control and blank wells, 25 ul of SDI were added. For wells containing pharmaceuticals, 25 ul of the respective pharmaceutical at a concentration of 100 ug ml−1 were added. This was immediately followed by the addition of 75 ul of bacterial suspension. To blanks were added 75 ul of SSW.
The bacterial cells in suspension were allowed to attach for 2 h at 28° C. Unattached cells were removed by aspiration using a plate washer (Tecan, Austria) and wells were rinsed three times with 200 ul of SSW each time. The attached cells were stained with 200 ul of crystal violet solution (0.1% w/v in deionized water) in each well for 5 min. After removing the stain using the plate washer, the wells were rinsed twice with 300 ul of SDI each time. Sodium desoxycholate (200 ul) solution (2% w/v in deionized water) was added to each well to extract the crystal violet from the attached stained cells for 10 min. The absorbance of the crystal violet was read at 590 nm using a microplate reader (Sunrise, Tecan, Austria).
Results of the adhesion assay were obtained by the difference in absorbance readings between wells containing bacterial cells and the mean of absorbance of those containing the SSW only. The effect of the pharmaceuticals on bacterial adhesion was determined by the examining the differences in absorbance between the wells containing the pharmaceuticals+bacteria and the bacteria. The significance was compared using T-test.

[2] = system: Balanus amphitrite stage II naupliar larvae
Method: (§1) Pharmaceuticals from the respective manufacturers were treated in the following way. A pill containing a known amount of active ingredient (as stated in product information) was ground in a mortar and pestle and a suspension of 2 mg ml^−1 generated in de-ionized water. This stock solution is stored at −20° C. in 4 ml amber screw cap vials. For the bioassays, 250 ul of stock solution is added to 10 ml of 1 um filtered seawater. This suspension was then sonicated for 10 minutes. Serial dilutions of this 50 μg ml^−1 seawater solution, or suspension, with seawater was done to generate the required range of concentrations.
Stage II naupliar larvae used in tests were obtained from Balanus amphitrite adults collected from inter-tidal rock walls at Kranji mangrove, Singapore. Larvae were collected from a container of adults by attraction to a point source of light and transferred to 500 ml of fresh seawater. Next, larvae were re-concentrated with a fiber optic light and added to assays.
Duplicate assays were conducted in 2 ml micro-centrifuge tubes (Axygen MCT-200-C) in 1.5 ml of filtered seawater for 22 to 24 hours. The assays were repeated for confirmation. There were four controls (vehicle only, 0 μg ml^−1), and 2 tubes of each for each test concentration. The assay was initiated by addition of barnacle nauplii in 50 to 100 μl of seawater.
After 22 to 24 hours of incubation at 25-27° C., solutions containing test animals were transferred to a Bogorov tray and scored as living or dead. Moribund larvae were scored as dead. Results were confirmed by repeating the assay. […] If data were not appropriate for probit analysis, the LC50 was estimated from graphed data.

[3] = system: Balanus amphitrite cyprids; assay: whole plant or invertebrate; conditions: for IC50: Amphibalanus amphitrite, 24 h, read-out: ED50; for Prevention of settlement of barnacle cyprids: crude rank, best (1) to worst (8)
Method: as §1
This method is now standard practice for many antifouling screening of novel compounds.
Barnacle larvae from field-collected adults were reared on an algal mixture of 1:2:2 v/v of Rhodomonas salina, Tetraselmis suecica and Chaetoceros muelleri at 25° C., at approximately 5×10^5 cells per ml density. On this regime, larvae metamorphose to cyprids in 5 days.
Test solutions were made up to twice the required final concentration. 1 ml of test solution was added into each well, and cyprids were transferred into each well in 1 ml of seawater. Assays were done in triplicate. After 24 hours, larvae that had attached and metamorphosed were enumerated and the result expressed as percentage settlement. Larvae not attached were scored as not settled.
The Therapeutic Ratio, or LC50/EC50, is a way of assessing the effectiveness of the compound in relation to its toxicity. […] LC50 and EC50 estimates and the therapeutic ratio should be considered as working values providing an estimation of potency, rather than as absolutes.

[4] = system: barnacle nauplii; assay: Toxicity of drugs under different light conditions and over time (stability in seawater); type: in vivo, Balanus amphitrite; conditions: for Change in toxicity on ageing in seawater, 12L:12D condition / Change in toxicity on ageing in seawater, dark condition / Effect of UV on drug toxicity to barnacle nauplii: 25 ug ml^−1 seawater suspension; for Change in toxicity on ageing in seawater, 12L:12D condition: 12 h light and 12 h dark; for Change in toxicity on ageing in seawater, 12L:12D condition / Change in toxicity on ageing in seawater, dark condition: after 4 weeks; for Effect of UV on drug toxicity to barnacle nauplii: UV for half an hour
Method: Preliminary experiments were carried out to examine the chemical stability of the drugs. 25 ug ml^−1 seawater suspensions of the drugs were prepared, in 3 replicates per condition, 3 replicate tubes containing 15 ml per test tube per prepared for each treatment type. The treatments consisted of: • i. Dark condition: tubes were wrapped in aluminium foil and kept in the dark at all times • ii. 12L:12D condition, where the tubes were subject incubated in a plant growth chamber with light regime of 12 hours light and 12 hours dark. • iii. UV treated tubes were subject to UV for half an hour. […] Sets (1) & (2) were tested at week 0, 1, 2 and after 4 weeks. “UV” set is only assayed after UV treatment. […] Effect of UV

[5] = cited from earlier work; for Solubility: in words
[6] = barnacle nauplii, 22 to 24 hours, concentration that caused 50% mortality

Structure (SMILES)	Effect on formation of bacterial biofilms on NTC and TC plates ([1]; hydrochloride)	Prevention of formation of biofilm [1]	LD50 [2, 6] [ng/mL]	Toxicity to barnacle nauplii and cyprids ([2]; in vivo)	IC50 [3] [µg/mL]	Prevention of settlement of barnacle cyprids [3]	Stability under UV and in seawater ([4]; other studies carried out by the group)	Solubility [5]	Effect on formation of bacterial biofilms on NTC and TC plates [1]	LD50 ([2]; Balanus amphitrite, in vivo) [ng/mL]	Change in toxicity on ageing in seawater, 12L:12D condition [4]	Solubility in water [5] [µg/mL]	Effect on settlement of cyprids ([3]; in words)	Change in toxicity on ageing in seawater, dark condition [4]	Effect of UV on drug toxicity to barnacle nauplii [4]
CN1CCN(C(c2ccccc2)c2ccccc2)CC1 [CYZ, Cyclizine hydrochloride]	significantly more bacteria adhesion for strain 9; also recorded: No significant reduction in biofilm formation	8	61.05	toxic to barnacle nauplii and cyprids	0.156	4	does not breakdown under UV and remains stable after four months in seawater	soluble in water							
CCCCCCCCCC(=O)OC1(c2ccc(Cl)cc2)CCN(CCCC(=O)c2ccc(F)cc2)CC1 [HDL, haloperidol decanoate]		6		toxic to barnacle nauplii and cyprids	0.119 (≈ 0.225 µM)	3		almost insoluble in water	no significant difference from control; also recorded: On TC, there was a slight reduction in biofilm formation for strain 28 (p<0.1); also recorded: No significant reduction in biofilm formation was observed for most strains, except for strain 28, where there appears to be a slight effect (0.05<p<0.1)	252.68	increased in toxicity	10 (≈ 18.9 µM)			
CN(C)C(=O)C(CCN1CCC(O)(c2ccc(Cl)cc2)CC1)(c1ccccc1)c1ccccc1 [IMD, Loperamide hydrochloride]	On NTC, there was a slight reduction in strain 28; also recorded: reduction of biofilm growth in strain 28 on NTC but not on TC	7	241.34		> 5	8		slightly soluble in water					not effective against cyprids		
CN1CCN(CCCN2c3ccccc3Sc3ccc(Cl)cc32)CC1 [PCZ, prochlorperazine maleate]		4	3.54	very toxic to nauplii and cyprids	0.174	2			reduced biofilm formation only for strains 4 and 27; also recorded: active against strain 4, and a slight effect on strain 27		marked decrease in toxicity			appreciable decrease in toxicity	
CNCCC(Oc1ccc(C(F)(F)F)cc1)c1ccccc1 (stereo not drawn) [PZC, fluoxetine hydrochloride]	slight effect on biofilm formation in strain 4 on both TC and NTC plates; also recorded: slight effect on strain 4 (p<0.1)	5				7					did not show an appreciable change				some increase in toxicity
CN1CCN(CCCN2c3ccccc3Sc3ccc(C(F)(F)F)cc32)CC1 [TFZ, Trifluoperazine hydrochloride]	reduced biofilm formation on NTC plates; also recorded: active against strain 4, 14, 27 on NTC but no reduction of biofilms was observed on the TC plates	4	9.35	very toxic to nauplii and cyprids	0.0748	2					marked decrease in toxicity			appreciable decrease in toxicity	some increase in toxicity
Cc1nccn1CC1CCc2c(c3ccccc3n2C)C1=O (stereo not drawn) [ZFN, ondansetron hydrochloride]	reduced bacterial adhesion of the 6 strains to the NTC plates; also recorded: only slight activity (p<0.1) against strain 4 on the TC plates; also recorded: marked reduction of biofilm growth for most on NTC but not on TC	2	468.96		0.242	5		soluble in saline and water			increased in toxicity				reduction in toxicity under UV

Source: patent publication US20060110456A1, “Method for biocidal and/or biostatic treatment and compositions therefor” (NATIONAL UNIVERSITY OF SINGAPORE, priority 2004, published 2006)
